{"source": "the supplement of paper PMC10307832", "assay_in_all_cases": "relative viability (nuclei count vs DMSO), 5 days (fraction); higher = more cells survive", "key": {"[1]": {"compound": "C[C@@H](N)c1ccc(C(=O)Nc2ccnc3[nH]ccc23)cc1 + CC(=O)Nc1cccc(-n2c(=O)n(C3CC3)c(=O)c3c(Nc4ccc(I)cc4F)n(C)c(=O)c(C)c32)c1 [Trametinib] (partner 0.02 µM)", "method_in_brief": "(§1)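 Lung cancer cell lines were seeded in 1536-well plates and dosed by pin tool the next day, with either a single drug or a fixed anchor-drug dose combined with five library-drug doses (not always all listed) spaced in √10 steps. Five days later, one step fixed the cells and stained their nuclei (final 0.05% Triton X-100, 1% formaldehyde, 1 ug/ml Hoechst), and nuclei were counted on 4× images. Relative viability is the nuclei count in treated wells divided by the count in vehicle wells, and each value is the median of duplicate plates.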"}, "[2]": {"compound": "C[C@@H](N)c1ccc(C(=O)Nc2ccnc3[nH]ccc23)cc1 + Cc1nc(NC(=O)N2CCC[C@H]2C(N)=O)sc1-c1ccnc(C(C)(C)C(F)(F)F)c1 [Alpelisib] (partner 2 µM)", "method_in_brief": "as §1"}, "Tanzisertib + Tozasertib": {"compound": "O[C@H]1CC[C@H](Nc2ncc3nc(Nc4c(F)cc(F)cc4F)n([C@H]4CCOC4)c3n2)CC1 [Tanzisertib] + Cc1cc(Nc2cc(N3CCN(C)CC3)nc(Sc3ccc(NC(=O)C4CC4)cc3)n2)n[nH]1 [Tozasertib] (partner 0.1 µM)", "method_in_brief": "as §1"}, "[3]": {"compound": "C[C@@H](N)c1ccc(C(=O)Nc2ccnc3[nH]ccc23)cc1 + C[C@]1(O)C[C@@H](c2nc(-c3ccc4ccc(-c5ccccc5)nc4c3)c3c(N)nccn32)C1 [Linsitinib] (partner 1 µM)", "method_in_brief": "as §1"}}, "data": [{"cell line": "UMC-11", "values": [{"measurement": "relative viability", "setting": "[1]; first compound 0.04 µM", "value": 0.867}, {"measurement": "relative viability", "setting": "[1]; first compound 0.1265 µM", "value": 0.767}, {"measurement": "relative viability", "setting": "[1]; first compound 0.4 µM", "value": 0.849}, {"measurement": "relative viability", "setting": "[1]; first compound 1.265 µM", "value": 0.184}, {"measurement": "relative viability", "setting": "[1]; first compound 4 µM", "value": 0.525}, {"measurement": "relative viability", "setting": "[2]; first compound 0.04 µM", "value": 1.12}, {"measurement": "relative viability", "setting": "[2]; first compound 0.1265 µM", "value": 1.05}, {"measurement": "relative viability", "setting": "[2]; first compound 0.4 µM", "value": 1.14}, {"measurement": "relative viability", "setting": "[2]; first compound 1.265 µM", "value": 0.997}, {"measurement": "relative viability", "setting": "[2]; first compound 4 µM", "value": 0.467}, {"measurement": "relative viability", "setting": "Tanzisertib + Tozasertib; first compound 0.08 µM", "value": 0.208}, {"measurement": "relative viability", "setting": "Tanzisertib + Tozasertib; first compound 0.253 µM", "value": 0.191}, {"measurement": "relative viability", "setting": "Tanzisertib + Tozasertib; first compound 0.8 µM", "value": 0.212}, {"measurement": "relative viability", "setting": "Tanzisertib + Tozasertib; first compound 2.53 µM", "value": 0.215}, {"measurement": "relative viability", "setting": "Tanzisertib + Tozasertib; first compound 8 µM", "value": 0.209}, {"measurement": "relative viability", "setting": "[3]; first compound 0.04 µM", "value": 1.02}, {"measurement": "relative viability", "setting": "[3]; first compound 0.1265 µM", "value": 1.09}, {"measurement": "relative viability", "setting": "[3]; first compound 0.4 µM", "value": 1.06}, {"measurement": "relative viability", "setting": "[3]; first compound 1.265 µM", "value": 0.958}, {"measurement": "relative viability", "setting": "[3]; first compound 4 µM", "value": 0.641}]}]}
